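Dose response: 5 concentrations. Exposure: 48 h. Format: 96-well plates. Endpoint: linear interpolation; highest concentration if not reached. Here, GI50 denotes the concentration required for 50% inhibition of growth. TGI denotes the concentration required for complete inhibition of growth.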

Test in all cases: NCI anticancer screen, dose series, 48 h
In assay [1] the test system is A498 renal.
For assay [2], the system named is ACHN renal.
The test system of assay [3] is CCRF-CEM leukemia.
For assay [4], the system named is HCT-15 colon.
Assay [5] has as its system HT29 colon.
Assay [6] relates to U251 CNS.
Assay [7] relates to UACC-257 melanoma.
Assay [8] concerns NCI/ADR-RES ovarian.
The subject of assay [9] is T-47D breast.
Assay [10] concerns MDA-MB-435.

Consider `CC(N)CC(=O)O` (stereo not drawn), for which the TGI in assay [1], in assay [2], in [3], in [4], in assay [5] and in assay [6] was over 5000 µM throughout. For the same compound, the TGI in [7] is over 5000 µM.

Regarding `Cc1cc2c(c(=O)o1)C1=S(SC(c3ccccc3)=C1)S2` (stereo not drawn), the TGI in [1] was 34 µM; in assay [2], over 100 µM; in assay [3], over 100 µM; in [4], over 100 µM; in assay [5], over 100 µM; in assay [8] it was over 100 µM. Further, the TGI was over 100 µM in assay [9], 57.2 µM in assay [6] and over 100 µM in assay [7].

On to `Nc1nc(C(=O)O)c(N=Nc2ccccc2)c(=O)[nH]1`, for which the TGI in assay [1], in [2], in assay [3], in assay [4], in assay [5] and in assay [10] was over 100 µM throughout. In addition, the TGI in assay [8], in assay [6] and in assay [7] was over 100 µM in each case.

Take `CC1CCN(CCOc2ccc(CNc3ccc4nc(CCC5CCCCC5)[nH]c4c3)cc2)CC1`: the GI50 is 1.77 µM in assay [1]; 1.76 µM in assay [2]; 1.72 µM in assay [3]; 1.43 µM in assay [4]; 1.15 µM in assay [5]; 1.64 µM in assay [10]. The GI50 was 1.81 µM in [8], 1.44 µM in assay [6] and 1.88 µM in assay [7]. Also, the TGI in [1] was 3.7 µM; in assay [2], 3.22 µM; in assay [3], 6.41 µM; in assay [4], 3.03 µM; in assay [5] it was 2.81 µM; in assay [10], 3.07 µM. The TGI came out at 4.12 µM in assay [8], 2.85 µM in assay [6] and 3.74 µM in [7].

On to `c1ccc(-c2csc3ncn4cnnc4c23)cc1`, for which the TGI in [2], in [3], in assay [4], in assay [5] and in assay [6] was over 100 µM throughout.

With `Clc1ccc([I+]c2ccc(Cl)cc2Cl)c(Cl)c1`, the GI50 in [1] was 1.76 µM; in [2] it was 1.89 µM; in assay [3] it was 2.09 µM; in [4], 2.06 µM; in assay [5], 1.78 µM; in assay [10], 1.96 µM. In addition, the GI50 in assay [8] is 9.47 µM; in assay [6] it was 1.77 µM; in assay [7], 2.38 µM. The TGI in assay [1] stood at 6.98 µM; in assay [2], 3.77 µM; in assay [3], 5.32 µM; in assay [4], 5.25 µM; in assay [5], 3.26 µM; in [10], 4.33 µM. Moreover, the results for the TGI in [8], in assay [6] and in assay [7] were 32 µM, 3.38 µM and 5.8 µM, respectively.

With `C=C1C(=O)O[C@H]2[C@H]1CC/C(COC(=O)NCc1c[nH]c3ccc(F)cc13)=C\CC[C@@]1(C)O[C@@H]21`, the GI50 was 3.46 µM in assay [1]; 1.36 µM in [2]; 0.302 µM in assay [3]; 1.04 µM in [4]; 1.07 µM in assay [5]; 1.31 µM in assay [10]. Further, the GI50 in assay [8] is 3.58 µM; in assay [6], 2.35 µM; in assay [7], 1.69 µM. Also, the TGI in assay [1] turned out to be 12.9 µM; in assay [2], 2.67 µM; in [3] it was 1.2 µM; in assay [4], 2.55 µM; in [5] it was 2.58 µM; in assay [10], 3.1 µM. Besides, the TGI stood at 20.3 µM in [8], 5.81 µM in [6] and 3.29 µM in assay [7].

In the case of `CCOC(=O)C(CCCNC(=O)OC(C)(C)C)N(Cc1ccc(OC)cc1OC)C(=O)CC(=O)CP(=O)(OCC)OCC` (stereo not drawn), the TGI in [1], in assay [2], in assay [3], in [5], in assay [6] and in [7] was over 100 µM throughout.

With `COc1ccc(-c2c3c(N)c4c(nc3nc3c2c(C)nn3-c2ccccc2)CCCC4)cc1`, the GI50 in assay [1] is 11.9 µM; in assay [2] it was 4.32 µM; in assay [3], 2.18 µM; in [4] it was 3.08 µM; in assay [5], 2.68 µM; in [10], 3.83 µM. Besides, the GI50 in [8] is 3.41 µM; in assay [6], 1.72 µM; in assay [7], 2.43 µM. For the same compound, the TGI came to 27.3 µM in [1]; 15.1 µM in assay [2]; 6.86 µM in [3]; 10.9 µM in assay [4]; 8.8 µM in assay [5]; 16.4 µM in [10]. Moreover, the TGI in assay [8] worked out at 14.2 µM; in [6], 3.56 µM; in [7], 9.38 µM.

For the compound `C/C(=N\NC(=O)C(N)=O)c1c(O)cc(C)oc1=O`, the TGI in assay [1], in assay [2], in assay [3], in assay [4], in assay [5] and in assay [6] was over 100 µM throughout. The TGI in assay [7] is over 100 µM.

`C=C1C=CC2(Br)OC3CC(C)(Cl)C(Br)CC13C2(C)C` (stereo not drawn): the TGI in assay [1] stood at 46.5 µM; in assay [2], 56.2 µM; in assay [3] it was 47.5 µM; in assay [4], 51.3 µM; in [5] it was 36.5 µM; in assay [6], 35.3 µM. The compound further gave a TGI in [7] of 42.8 µM.

Regarding `CN(C)CCCn1c2c(c3cc4c(cc3c1=O)OCO4)C(=O)c1ccccc1-2`, the GI50 in assay [2] is under 0.0213 µM; in assay [3], 0.192 µM; in assay [4] it was under 0.0275 µM; in assay [5], 0.0472 µM; in [10] it was 1.49 µM; in [9], 22.7 µM. Also, the figures for the GI50 in assay [6] and in assay [7] were 0.081 µM and 1.54 µM, respectively. The TGI is 0.234 µM in assay [2]; 3.51 µM in [3]; 4.35 µM in assay [4]; over 100 µM in assay [5]; 5.81 µM in [10]; over 100 µM in [9]. The TGI was 3.5 µM in assay [6] and 14.9 µM in [7].

Values taken from PubChem BioAssay (NCI).
